Data: PubChem BioAssay AID192 (DTP/NCI, 2004)
“And” between values parts separate entries of the source, which are not always exact repeats. Equal entries are not always repeated. Toxic doses and inconclusive results are not listed.

Tested on: BDF1 mice, B16 melanoma ip, median survival T/C
Experiment: NCI In Vivo Anticancer Drug Screen. Data for tumor model B16 Melanoma (intraperitoneal) in B6D2F1 (BDF1) mice
Settings: endpoint: median survival time, higher = longer survival
Method in brief: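 Antitumor activity is assessed in mice bearing a transplanted tumor, with survival or tumor size compared against vehicle-dosed controls and expressed as T/C.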

[1] = dose: 100.0 mg/kg/injection, schedule: Q01DX009 (ip), vehicle: Klucel (hydroxypropylcellulose) (HPC)
[2] = dose: 200.0 mg/kg/injection, schedule: Q01DX009 (ip), vehicle: Klucel (hydroxypropylcellulose) (HPC)
[3] = dose: 400.0 mg/kg/injection, schedule: Q01DX009 (ip), vehicle: Klucel (hydroxypropylcellulose) (HPC)
[4] = dose: 6.25 mg/kg/injection, schedule: Q01DX009 (ip), vehicle: saline with Tween-80
[5] = dose: 12.5 mg/kg/injection, schedule: Q01DX009 (ip), vehicle: saline with Tween-80
[6] = dose: 25.0 mg/kg/injection, schedule: Q01DX009 (ip), vehicle: saline with Tween-80
[7] = dose: 50.0 mg/kg/injection, schedule: Q01DX009 (ip), vehicle: saline with Tween-80
[8] = dose: 100.0 mg/kg/injection, schedule: Q01DX009 (ip), vehicle: saline with Tween-80
[9] = dose: 25.0 mg/kg/injection, schedule: Q01DX009 (ip), vehicle: saline
[10] = dose: 50.0 mg/kg/injection, schedule: Q01DX009 (ip), vehicle: saline
[11] = dose: 100.0 mg/kg/injection, schedule: Q01DX009 (ip), vehicle: saline
[12] = dose: 6.25 mg/kg/injection, schedule: Q01DX009 (ip), vehicle: saline
[13] = dose: 12.5 mg/kg/injection, schedule: Q01DX009 (ip), vehicle: saline
[14] = dose: 50.0 mg/kg/injection, schedule: Q04DX003 (ip), vehicle: saline with Tween-80
[15] = dose: 100.0 mg/kg/injection, schedule: Q04DX003 (ip), vehicle: saline with Tween-80
[16] = dose: 200.0 mg/kg/injection, schedule: Q04DX003 (ip), vehicle: saline with Tween-80
[17] = dose: 200.0 mg/kg/injection, schedule: Q01DX009 (ip), vehicle: saline with Tween-80
[18] = dose: 50.0 mg/kg/injection, schedule: Q01DX009 (ip), vehicle: Klucel (hydroxypropylcellulose) (HPC)
[19] = dose: 3.12 mg/kg/injection, schedule: Q01DX009 (ip), vehicle: Klucel (hydroxypropylcellulose) (HPC)
[20] = dose: 6.25 mg/kg/injection, schedule: Q01DX009 (ip), vehicle: Klucel (hydroxypropylcellulose) (HPC)
[21] = dose: 12.5 mg/kg/injection, schedule: Q01DX009 (ip), vehicle: Klucel (hydroxypropylcellulose) (HPC)

With `CCCCCCCCCCCCCC(=O)OC12CC(C)C3(O)C(C=C(CO)C(O)C4(O)C(=O)C(C)=CC43)C1C2(C)C` (configuration not stated) the T/C (dose: 0.01 mg/kg/injection, schedule: Q01DX009 (ip), vehicle: saline + alcohol) was 99 % of control, the T/C (dose: 0.03 mg/kg/injection, schedule: Q01DX009 (ip), vehicle: saline + alcohol) was 107 % of control and the T/C (dose: 0.06 mg/kg/injection, schedule: Q01DX009 (ip), vehicle: saline + alcohol) was 104 % of control. For the same molecule, the T/C (dose: 0.12 mg/kg/injection, schedule: Q01DX009 (ip), vehicle: saline + alcohol) was 94 % of control and the T/C (dose: 0.13 mg/kg/injection, schedule: Q01DX009 (ip), vehicle: saline + alcohol) was 100 % of control.
With `CN(C)CCCNc1c2ccccc2nc2cccc([N+](=O)[O-])c12` the T/C (dose: 2.0 micrograms/kg/injection, schedule: Q01DX009 (ip), vehicle: saline) was 112 % of control, the T/C (dose: 4.0 micrograms/kg/injection, schedule: Q01DX009 (ip), vehicle: saline) was 116 % of control and the T/C (dose: 8.0 micrograms/kg/injection, schedule: Q01DX009 (ip), vehicle: saline) was 107 % of control. The T/C (dose: 16.0 micrograms/kg/injection, schedule: Q01DX009 (ip), vehicle: saline) was 109 % of control, the T/C (dose: 32.0 micrograms/kg/injection, schedule: Q01DX009 (ip), vehicle: saline) was 121 % of control and the T/C (dose: 63.0 micrograms/kg/injection, schedule: Q01DX009 (ip), vehicle: saline) was 103 % of control. For the same molecule, the T/C (dose: 125.0 micrograms/kg/injection, schedule: Q01DX009 (ip), vehicle: saline) was 90 % of control.
`NC(=O)c1ccccc1NC(=O)COc1ccc(Cl)cc1` was tested, and the T/C [1] was 106 % of control, the T/C [2] was 106 % of control and the T/C [3] was 100 % of control.
In the case of `COc1cc2c(c(OC)c1OC)C(=O)/C(=C\c1ccccc1)O2`, the T/C [4] is reported as 101 % of control, the T/C [5] is reported as 106 % of control and the T/C [6] is reported as 103 % of control. For the same molecule, the T/C [7] was 86 % of control.
In the case of `CCSC(=O)N1c2ccc(OC)cc2C=CC1C#N` (configuration not stated), the T/C [8] is reported as 121 % of control.
`CC1CNC(=S)O1` (configuration not stated) was tested, and the T/C [9] was 97 % of control, the T/C [10] was 91 % of control and the T/C [11] was 91 % of control. The T/C (dose: 200.0 mg/kg/injection, schedule: Q01DX009 (ip), vehicle: saline) was 89 % of control and the T/C (dose: 400.0 mg/kg/injection, schedule: Q01DX009 (ip), vehicle: saline) was 91 % of control.
`CCNCC#CCNCC` was tested, and the T/C [10] was 107 % of control and the T/C [11] was 94 % of control.
With `CC(C)NC1C2CCC(CC2)C1(O)c1ccc(Cl)c(Cl)c1` (configuration not stated) the T/C (dose: 0.78 mg/kg/injection, schedule: Q01DX009 (ip), vehicle: saline) was 108 % of control, the T/C (dose: 1.56 mg/kg/injection, schedule: Q01DX009 (ip), vehicle: saline) was 107 % of control and the T/C (dose: 3.12 mg/kg/injection, schedule: Q01DX009 (ip), vehicle: saline) was 107 % of control. The T/C [12] was 104 % of control and the T/C [13] was 102 % of control.
In the case of `NC(=O)C(CC(=O)OCc1ccccc1)NC(=O)OCc1ccccc1` (configuration not stated), the T/C [1] is reported as 118 % of control, the T/C [2] is reported as 107 % of control and the T/C [3] is reported as 113 % of control.
`CC(=O)N(C)c1ccc(/C=C2\C=Cc3ccccc32)cc1` was tested, and the T/C [4] was 96 % of control, the T/C [5] was 100 % of control and the T/C [6] was 102 % of control.
`CCOC(=O)C(Cc1ccccc1)P(=O)(OCC)OCC` (configuration not stated) was tested, and the T/C [14] was 100 % of control, the T/C [15] was 95 % of control and the T/C [16] was 90 % of control.
For `Cc1cc(=O)c2c(=O)[nH][nH]c2[nH]1`, the T/C [7] was 100 % of control, the T/C [8] was 95 % of control and the T/C [17] was 88 % of control.
For `O=S(=O)(OCC(F)(F)F)c1ccccc1`, the T/C [18] was 109 % of control, the T/C [1] was 100 % of control and the T/C [2] was 97 % of control.
In the case of `N=C(N)SCCCCCCCCCCSC(=N)N`, the T/C [4] is reported as 95 % of control, the T/C [5] is reported as 88 % of control and the T/C [6] is reported as 86 % of control and 88 % of control.
In the case of `O=[N+]([O-])c1ccccc1O`, the T/C [5] is reported as 97 % of control, the T/C (dose: 12.5 mg/kg/injection, schedule: Q04DX003 (ip), vehicle: saline with Tween-80) is reported as 94 % of control and the T/C [6] is reported as 92 % of control. The T/C (dose: 25.0 mg/kg/injection, schedule: Q04DX003 (ip), vehicle: saline with Tween-80) was 91 % of control, the T/C [7] was 100 % of control and the T/C [14] was 100 % of control.
In the case of `[Cl][Pt+2]([Cl])([Cl])[Cl].[NH-]C1CCCCC1.[NH-]C1CCCCC1`, the T/C (dose: 6.25 mg/kg/injection, schedule: Q01DX009 (ip), vehicle: other) is reported as 124 % of control, the T/C (dose: 12.5 mg/kg/injection, schedule: Q01DX009 (ip), vehicle: other) is reported as 111 % of control and the T/C (dose: 25.0 mg/kg/injection, schedule: Q01DX009 (ip), vehicle: other) is reported as 112 % of control. For the same molecule, the T/C (dose: 50.0 mg/kg/injection, schedule: Q01DX009 (ip), vehicle: other) was 103 % of control.
In the case of `NC(=S)Nc1cccc2ccccc12`, the T/C [4] is reported as 99 % of control, the T/C [5] is reported as 95 % of control and the T/C [6] is reported as 97 % of control.
With `CCC(=O)[O][Bi]([c]1ccccc1)[c]1ccccc1` the T/C (dose: 3.0 mg/kg/injection, schedule: Q01DX009 (ip), vehicle: Klucel (hydroxypropylcellulose) (HPC)) was 90 % of control, the T/C (dose: 6.0 mg/kg/injection, schedule: Q01DX009 (ip), vehicle: Klucel (hydroxypropylcellulose) (HPC)) was 99 % of control and the T/C (dose: 12.0 mg/kg/injection, schedule: Q01DX009 (ip), vehicle: Klucel (hydroxypropylcellulose) (HPC)) was 94 % of control. For the same molecule, the T/C (dose: 24.0 mg/kg/injection, schedule: Q01DX009 (ip), vehicle: Klucel (hydroxypropylcellulose) (HPC)) was 91 % of control.
For `C[n+]1ccc2cc(N)c3c4ccccc4sc3c2c1`, the T/C [19] was 103 % of control, the T/C [20] was 101 % of control and the T/C [12] was 113 % of control. The T/C [21] was 95 % of control, the T/C [13] was 119 % of control and the T/C [9] was 91 % of control.
In the case of `C=CCC(OC(=O)c1ccc(Br)cc1)C1(C)OC1C(C)C1CC(O)(C(OC)OC)NC(=O)O1` (configuration not stated), the T/C (dose: 0.25 mg/kg/injection, schedule: Q01DX009 (ip), vehicle: saline + alcohol) is reported as 100 % of control, the T/C (dose: 0.5 mg/kg/injection, schedule: Q01DX009 (ip), vehicle: saline + alcohol) is reported as 103 % of control and the T/C (dose: 1.0 mg/kg/injection, schedule: Q01DX009 (ip), vehicle: saline + alcohol) is reported as 93 % of control. For the same molecule, the T/C (dose: 2.0 mg/kg/injection, schedule: Q01DX009 (ip), vehicle: saline + alcohol) was 98 % of control and the T/C (dose: 4.0 mg/kg/injection, schedule: Q01DX009 (ip), vehicle: saline + alcohol) was 90 % of control.
`O=C1/C(=N/O)CCc2ccccc21` was tested, and the T/C [18] was 91 % of control and the T/C [1] was 100 % of control.
With `CC(=O)C1=CC(=O)NC(=O)C1C(=O)CC(C)C` (configuration not stated) the T/C (dose: 1.56 mg/kg/injection, schedule: Q01DX009 (ip), vehicle: Klucel (hydroxypropylcellulose) (HPC)) was 104 % of control, the T/C [19] was 89 % of control and 95 % of control and the T/C [20] was 92 % of control.
In the case of `Nc1nc2[nH]c(=O)cnc2c(=O)[nH]1`, the T/C [18] is reported as 88 % of control, the T/C [1] is reported as 86 % of control and the T/C [2] is reported as 99 % of control.
`O=c1cnn(C2OC(CO)C(O)C2O)c(=S)[nH]1` (configuration not stated) was tested, and the T/C [15] was 93 % of control, the T/C [16] was 95 % of control and the T/C (dose: 400.0 mg/kg/injection, schedule: Q04DX003 (ip), vehicle: saline with Tween-80) was 88 % of control.
With `Brc1cc(Br)cc(-c2nnc(-c3cccc4ccccc34)o2)c1` the T/C [2] was 94 % of control.
For `Cc1ncc(CNC(=O)N(CCCl)N=O)c(N)n1`, the T/C (dose: 1.56 mg/kg/injection, schedule: Q01DX009 (ip), vehicle: suspension in saline) was 155 % of control, the T/C (dose: 3.12 mg/kg/injection, schedule: Q01DX009 (ip), vehicle: suspension in saline) was 193 % of control and the T/C (dose: 6.25 mg/kg/injection, schedule: Q01DX009 (ip), vehicle: suspension in saline) was 279 % of control. The T/C [21] was 164 % of control and the T/C (dose: 12.5 mg/kg/injection, schedule: Q01DX009 (ip), vehicle: suspension in saline) was 322 % of control.
In the case of `COc1ccc(Cl)cc1NC(=O)C(Br)C(Br)C(=O)O` (configuration not stated), the T/C [5] is reported as 102 % of control, the T/C [6] is reported as 105 % of control and the T/C [7] is reported as 95 % of control. The T/C [8] was 89 % of control and the T/C [17] was 91 % of control.
`N#CCCCc1ccccc1` was tested, and the T/C [18] was 112 % of control and the T/C [1] was 106 % of control.
